# Biological target: PD-1/PD-L1 (Homo sapiens (Human), UniProt Q9NZQ7)
# Experiment: PD-1/PD-L1 Homogeneous Time-Resolved Fluorescence (HTRF) Binding Assay
# Settings: recombinant human PD-1 (3 nM) and PD-L1 (10 nM), 25° C., PBS pH 7.4
# How it was run: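 Fc-tagged human PD-1 (25-167, 3 nM) and His-tagged PD-L1 (19-238, 10 nM) preincubated with inhibitor 40 min in PBS pH 7.4, 0.05% Tween-20, 0.1% BSA, 1% DMSO, 25 °C. Binding detected by HTRF (Eu anti-IgG/APC anti-His, 665/620 nm) after 60 min; IC50 from percent control activity.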
# PD-1/PD-L1, sequence (Q9NZQ7 19-238): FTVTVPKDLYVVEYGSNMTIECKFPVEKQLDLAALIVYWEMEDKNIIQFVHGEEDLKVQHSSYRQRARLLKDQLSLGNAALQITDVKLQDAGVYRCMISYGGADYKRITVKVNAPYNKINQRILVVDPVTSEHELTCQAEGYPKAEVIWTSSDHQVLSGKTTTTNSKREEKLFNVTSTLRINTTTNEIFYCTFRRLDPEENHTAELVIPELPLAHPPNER
row,IC50 [nM],Compound
1,≤ 10,"Cc1c(Nc2nccc3cc(CN4CC[C@@H](O)C4)cnc23)cccc1-c1cccc(-c2nc3cc(CN[C@H]4CC[C@H](C(=O)O)C4)cc(C#N)c3o2)c1C [Example 182, (1S,3S)-3-((7-cyano-2-(3′-(3-(((R)-3-hydroxypyrrolidin-1-yl)methyl)-1,7-naphthyridin-8-ylamino)-2,2′-dimethylbiphenyl-3-yl)benzo [d]oxazol-5-yl)methylamino)cyclopentane carboxylic acid]"
2,≤ 10,"Cc1c(-c2nc3c(o2)CN(C(=O)CN2CC[C@@H](C(=O)O)C2)C3)cccc1-c1cccc(-c2nc3cc(CN4CC[C@@H](O)C4)cc(C#N)c3o2)c1C [Example 132, (R)-1-(2-(2-(3′-(7-cyano-5-(((R)-3-hydroxypyrrolidin-1-yl)methyl)benzo[d]oxazol-2-yl)-2,2′-dimethyl-[1,1′-biphenyl]-3-yl)-4,6-dihydro-5H-pyrrolo[3,4-d]oxazol-5-yl)-2-oxoethyl)pyrrolidine-3-carboxylic acid]"
3,≤ 10,"Cc1c(-c2nc3c(o2)CN(C(=O)CN(C)C(C)C)C3)cccc1-c1cccc(-c2nc3cc(CN4CC[C@@](C)(C(=O)O)C4)cc(C#N)c3o2)c1C [Example 248, (R)-1-((7-cyano-2-(3′-(5-(N-isopropyl-N-methylglycyl)-5,6-dihydro-4H-pyrrolo[3,4-d]oxazol-2-yl)-2,2'-dimethyl-[1,1′-biphenyl]-3-yl)benzo[d]oxazol-5-yl)methyl)-3-methylpyrrolidine-3-carboxylic acid]"
4,≤ 10,"Cc1c(-c2nc3cc(CN4CC[C@@H](C(=O)O)C4)cc(C#N)c3o2)cccc1-c1cccc(-c2nc3c(o2)CN(C(=O)CN2CC[C@@H](O)C2)C3)c1Cl [Example 256, (R)-1-((2-(2′-chloro-3′-(5-(2-((R)-3-hydroxypyrrolidin-1-yl)acetyl)-5,6-dihydro-4H-pyrrolo[3,4-d]oxazol-2-yl)-2-methyl-[1,1′-biphenyl]-3-yl)-7-cyanobenzo[d]oxazol-5-yl)methyl)pyrrolidine-3-carboxylic acid]"
5,≤ 10,"Cc1c(-c2nc3cc(CN4CC5CC4CC5C(=O)O)cc(C#N)c3o2)cccc1-c1cccc(-c2nc3c(s2)CN(C(=O)CN(C)C)C3)c1C (stereo not drawn) [Example 237, 2-((7-cyano-2-(3′-(5-(2-(dimethylamino)acetyl)-5,6-dihydro-4H-pyrrolo[3,4-d]thiazol-2-yl)-2,2′-dimethylbiphenyl-3-yl)benzo[d]oxazol-5-yl)methyl)-2-azabicyclo[2.2.1]heptane-5-carboxylic acid]"
6,≤ 10,"Cc1c(Nc2nccc3cc(CCN4CC[C@@H](O)C4)cnc23)cccc1-c1cccc(-c2nc3cc(CN4CC[C@@H](C(=O)O)C4)cc(C#N)c3o2)c1C [Example 167, (R)-1-((7-cyano-2-(3′-(3-(2-((R)-3-hydroxypyrrolidin-1-yl)ethyl)-1,7-naphthyridin-8-ylamino)-2,2′-dimethylbiphenyl-3-yl)benzo[d]oxazol-5-yl)methyl)pyrrolidine-3-carboxylic acid]"
7,≤ 10,"Cc1c(NC(=O)c2nc3c(n2C)CCN(C)C3)cccc1-c1cccc(-c2nc3cc(CN4CC[C@H](C(=O)O)C4)cc(C#N)c3o2)c1C [Example 36, (S)-1-((7-cyano-2-(3′-(1,5-dimethyl-4,5,6,7-tetrahydro-1H-imidazo[4,5-c]pyridine-2-carboxamido)-2,2′-dimethylbiphenyl-3-yl)benzo[d]oxazol-5-yl)methyl)pyrrolidine-3-carboxylic acid]"
8,≤ 10,"Cc1c(-c2nc3cc(CN4CC[C@@H](C(=O)O)C4)cc(C#N)c3o2)cccc1-c1cccc(-n2cc3c(n2)CN(C)CC3)c1Cl [Example 57, (R)-1-((2-(2′-chloro-2-methyl-3′-(6-methyl-4,5,6,7-tetrahydro-2H-pyrazolo[3,4-c]pyridin-2-yl)biphenyl-3-yl)-7-cyanobenzo[d]oxazol-5-yl)methyl)pyrrolidine-3-carboxylic acid]"
9,≤ 10,"Cc1c(-c2nc3c(o2)CN(C(=O)[C@@H]2CCCN2C)C3)cccc1-c1cccc(-c2nc3cc(CN4CC[C@@H](C(=O)O)C4)cc(C#N)c3o2)c1C [Example 124, (R)-1-((7-cyano-2-(2,2′-dimethyl-3′-(5-(methyl-L-prolyl)-5,6-dihydro-4H-pyrrolo[3,4-d]oxazol-2-yl)-[1,1′-biphenyl]-3-yl)benzo[d]oxazol-5-yl)methyl)pyrrolidine-3-carboxylic acid]"
10,≤ 10,"Cc1c(-c2nc3cc(CN4CC[C@@](C)(C(=O)O)C4)cc(C#N)c3o2)cccc1-c1cccc(-c2nc3c(s2)CN(C(=O)CN(C)CC2CC2)C3)c1C [Example 219, (R)-1-((7-cyano-2-(3′-(5-(2-((cyclopropylmethyl) (methyl)amino)acetyl)-5,6-dihydro-4H-pyrrolo[3,4-d]thiazol-2-yl)-2,2′-dimethylbiphenyl-3-yl)benzo[d]oxazol-5-yl)methyl)-3-methylpyrrolidine-3-carboxylic acid]"
11,≤ 10,"Cc1c(Nc2nccc3cc(CNCCO)cnc23)cccc1-c1cccc(-c2nc3cc(CN4CCCC[C@H]4C(=O)O)cc(Cl)c3o2)c1C [Example 3, (S)-1-((7-chloro-2-(3′-((3-(((2-hydroxyethyl)amino)methyl)-1,7-naphthyridin-8-yl)amino)-2,2′-dimethyl-[1,1′-biphenyl]-3-yl)benzo[d]oxazol-5-yl)methyl)piperidine-2-carboxylic acid]"
12,≤ 10,"Cc1c(-c2nc3cc(CN4CC[C@@](C)(C(=O)O)C4)cc(C#N)c3o2)cccc1-c1cccc(-c2nc3c(s2)CN(C(=O)CN(C)C(C)C)C3)c1C [Example 217, (R)-1-((7-cyano-2-(3′-(5-(2-(isopropyl(methyl)amino)acetyl)-5,6-dihydro-4H-pyrrolo[3,4-d]thiazol-2-yl)-2,2′-dimethylbiphenyl-3-yl)benzo[d]oxazol-5-yl)methyl)-3-methylpyrrolidine-3-carboxylic acid]"
13,≤ 10,"Cc1c(-c2nc3c(o2)CN(C(=O)CN2CC[C@@H](O)C2)C3)cccc1-c1cccc(-c2nc3cc(CN4CC[C@@](C)(C(=O)O)C4)cc(C#N)c3o2)c1C [Example 247, (R)-1-((7-cyano-2-(3′-(5-(2-((R)-3-hydroxypyrrolidin-1-yl)acetyl)-5,6-dihydro-4H-pyrrolo[3,4-d]oxazol-2-yl)-2,2′-dimethyl-[1,1′-biphenyl]-3-yl)-benzo[d]oxazol-5-yl)methyl)-3-methylpyrrolidine-3-carboxylic acid]"
14,≤ 10,"Cc1c(Nc2nccc3cc(CN4CCCC4)cnc23)cccc1-c1cccc(-c2nc3cc(CN4CC[C@@](C)(C(=O)O)C4)cc(C#N)c3o2)c1C [Example 193, (R)-1-((7-cyano-2-(2,2′-dimethyl-3′-(3-(pyrrolidin-1-ylmethyl)-1,7-naphthyridin-8-ylamino)biphenyl-3-yl)benzo[d]oxazol-5-yl)methyl)-3-methylpyrrolidine-3-carboxylic acid]"
15,≤ 10,"Cc1c(-c2nc3cc(CN4CC[C@@H](C(=O)O)C4)cc(Cl)c3o2)cccc1-c1cccc(-c2nc3c(s2)CN(C(C)C)CC3)c1C [Example 59, (R)-1-((7-chloro-2-(3′-(5-isopropyl-4,5,6,7-tetrahydrothiazolo[5,4-c]pyridin-2-yl)-2,2′-dimethyl-[1,1′-biphenyl]-3-yl)benzo[d]oxazol-5-yl)methyl)pyrrolidine-3-carboxylic acid]"
16,≤ 10,"Cc1c(Nc2nccc3cc(CN4CC[C@@H](O)C4)cnc23)cccc1-c1cccc(-c2nc3cc(CN[C@H]4C[C@@H](C(=O)O)C4)cc(C#N)c3o2)c1C [Example 180, cis-3-((7-cyano-2-(3′-(3-(((R)-3-hydroxypyrrolidin-1-yl)methyl)-1,7-naphthyridin-8-ylamino)-2,2′-dimethylbiphenyl-3-yl)benzo [d]oxazol-5-yl)methylamino)cyclobutane carboxylic acid]"
17,≤ 10,"Cc1c(-c2nc3c(o2)CCNC3)cccc1-c1cccc(-c2nc3cc(CN4CC[C@@H](C(=O)O)C4)cc(C#N)c3o2)c1C [Example 75, (R)-1-((7-cyano-2-(2,2′-dimethyl-3′-(4,5,6,7-tetrahydrooxazolo[4,5-c]pyridin-2-yl)-[1,1′-biphenyl]-3-yl)benzo[d]oxazol-5-yl)methyl)pyrrolidine-3-carboxylic acid]"
18,≤ 10,"Cc1c(-c2nc3cc(CN4CC[C@H](C(=O)O)C4)cc(Cl)c3o2)cccc1-c1cccc(Nc2nccc3cc(CN4CC[C@@H](O)C4)cnc23)c1Cl [Example 81, (S)-1-((7-chloro-2-(2′-chloro-3′-(3-(((R)-3-hydroxypyrrolidin-1-yl)methyl)-1,7-naphthyridin-8-ylamino)-2-methylbiphenyl-3-yl)benzo[d]oxazol-5-yl)methyl)pyrrolidine-3-carboxylic acid]"
19,≤ 10,"Cc1c(Nc2ncnc3cc(CN4CC[C@@H](O)C4)cnc23)cccc1-c1cccc(-c2nc3cc(CN4CCC(C(=O)O)CC4)cc(C#N)c3o2)c1C [Example 207, (R)-1-((7-cyano-2-(3′-(7-((3-hydroxypyrrolidin-1-yl)methyl)pyrido [3,2-d]pyrimidin-4-ylamino)-2,2′-dimethylbiphenyl-3-yl)benzo[d]oxazol-5-yl)methyl)piperidine-4-carboxylic acid]"
20,≤ 10,"Cc1c(Nc2nccc3cc(CN4CC[C@@](C)(O)C4)cnc23)cccc1-c1cccc(-c2nc3cc(CN4CC[C@@H](C(=O)O)C4)cc(C#N)c3o2)c1C [Example 137, (R)-1-((7-cyano-2-(3′-(3-(((R)-3-hydroxy-3-methylpyrrolidin-1-yl)methyl)-1,7-naphthyridin-8-ylamino)-2,2′-dimethylbiphenyl-3-yl)benzo[d]oxazol-5-yl)methyl)pyrrolidine-3-carboxylic acid]"
21,≤ 10,"Cc1c(-c2nc3cc(CN4CCC(C(=O)O)CC4)cc(C#N)c3o2)cccc1-c1cccc(-c2nc3c(s2)CN(C(=O)CN(C)C)C3)c1C [Example 236, 1-((7-cyano-2-(3′-(5-(2-(dimethylamino)acetyl)-5,6-dihydro-4H-pyrrolo[3,4-d]thiazol-2-yl)-2,2′-dimethylbiphenyl-3-yl)benzo[d]oxazol-5-yl)methyl)piperidine-4-carboxylic acid]"

# — US10308644B2, “Heterocyclic compounds as immunomodulators” (Incyte Corporation, priority 2016, dated 2019)
